In PMC6881072, “The repositioning of epigenetic probes/inhibitors identifies new anti-schistosomal lead compounds and chemotherapeutic targets” (PLoS Neglected Tropical Diseases, 2019):
Read-outs that look alike come from different tables or passages of the source.

Key:
[1] = system: in vitro laid eggs (IVLEs) of adult worm pairs; test: Vitellocyte and egg volume quantification of in vitro laid eggs (LSCM); format: cell-based, Schistosoma mansoni; details: 0.2 μM, 72 h, n = 10 eggs
Source text: Fluorescent microscopic images (10 eggs per treatment) were captured on a Leica TCS SP8 super resolution laser confocal microscope fitted with a 63 X (water immersion) objective using the Leica Application Suite X. Green (egg autofluorescence) fluorescence was visualised with an argon or diode-pumped, solid state (DPSS) laser at 488 nm. DAPI was visualised using a 405 nm blue diode laser. The number of vitellocytes (DAPI^+ cells) and overall volume (mapped by the green autofluorescence) for individual eggs were calculated using IMARIS 7.3 software (Bitplane).

[2] = system: adult male and female schistosome pairs; test: In vitro adult schistosome screening (WHO/TDR motility, egg counts); format: cell-based, Schistosoma mansoni; details: for EC50: Schistosoma mansoni, motility
Method: In vitro screening was replicated three times on different dates to account for any biological variation. Briefly three adult worm pairs/well (48-well tissue culture plate format) were placed into DMEM (Gibco, Paisley, UK) supplemented with 10% (v/v) FCS (Gibco, Paisley, UK), 1% (v/v) L-glutamine (Gibco, Paisley, UK) and an antibiotic mixture (150 Units/ml penicillin and 150 μg/ml streptomycin; Gibco, UK). DMSO (0.5% negative control), AUR (10 μM concentration in 0.5% DMSO; positive control) and two-fold titrations of SGC compounds (50 μM– 6.25 μM or 50 μM– 0.05 μM; in 0.5% DMSO max) were added, and together, these adult worm/compound co-cultures were incubated at 37°C for 72 h in a humidified atmosphere containing 5% CO2. Following compound incubation, WHO/TDR readouts of adult worm motility, abundance of H3K36me2 (LLY-507 and BAY-598 treated worms only) in histone extracts and egg counts/well were recorded at 72 h.

HepG2 cells = test: HepG2 cell cytotoxicity, MTT assay; format: cell-based, Human; details: 20 h, read-out: CC50 (HepG2) (95% Confidence Intervals)
Method: (§1) Human Hepatocyte Carcinoma (HepG2) cells (Sigma Aldrich, UK) were utilized to assess SGC epigenetic probe cell cytotoxicity in the application of the MTT (3-(4,5-dimethylthiazol-2-yl)-2,5-diphenyltetrazolium bromide) assay. Briefly, cells were passaged at 70–80% confluence and seeded (20,000 cells/ 50 μL per well) in a 96-well, black-sided, clear-bottomed falcon plate (Fisher Scientific, UK) with the final plate column (8 wells) being treated as a blank (media only). Following a 24 h incubation (5% CO2, 37°C, humidified), HepG2 cells were then treated with 50 μL of pre-warmed media (37°C) containing SGC EPs/EIs at 200 μM to 0.02 μM (final concentration 100 μM, 10 μM, 1 μM, 0.1 μM and 0.01 μM). Three positive (1% Triton X-100) and negative (1% DMSO) control wells per plate were additionally included.
(§2) After addition of compounds, each plate was then incubated for a further 20 h before application of MTT for assessment of overt compound cytotoxicity using the MTT assay. The MTT assay was read using the POLARstar Omega (BMG LabTech, UK) plate reader at an absorbance of 570 nm. CC50s were calculated in GraphPad Prism.

[3] = HepG2 cell cytotoxicity, MTT assay; format: cell-based, Human; details: human, HepG2 cells, read-out: CC50 (HepG2) (95% Confidence Intervals)
Method: as §1, §2

S. mansoni schistosomula = test: In vitro schistosomula screening (Roboworm platform), phenotype and motility; format: cell-based, Schistosoma mansoni; details: for EC50: Schistosoma mansoni, two-fold titration 10 μM–0.625 μM, single replicate, approximate
Method: Briefly, 384-well tissue culture plates (Perkin Elmer, cat 6007460), containing 20 μl of Basch medium, were wet-stamped using a Biomek NX^P liquid handling platform (Beckman Coulter, UK) with negative (0.625% dimethyl sulfoxide, DMSO) and positive controls (AUR and PZQ at 10 μM final concentration in 0.625% DMSO) as well as 37 SGC compounds (at 10 μM final concentration in 0.625% DMSO). […] To each pre-loaded well (single concentration or titration screens), a total of 100–120 mechanically transformed schistosomula (in 60 μl) were deposited via a WellMate (Thermo Scientific, UK). Schistosomula/compound co-cultures (80 μl in total) were then incubated at 37°C for 72 h in a humidified atmosphere containing 5% CO2. At 72 h, tissue culture plates (containing schistosomula/compound co-cultures) were imaged under the same conditions (37°C in a humidified atmosphere containing 5% CO2) using an ImageXpressXL high content imager (Molecular Devices, UK) with subsequent images processed for phenotype and motility as previously reported and successfully implemented by us at Aberystwyth University. Single point schistosomula screens (10 μM) were repeated two or three times whereas dose response titrations were performed once. Zˊ values obtained from all schistosomula screens ranged from 0.27–0.48 (mean = 0.40) for phenotype and 0.41–0.56 (mean = 0.48) for motility.

[4] = cited from earlier work
smp_000700 = test: RNAi knockdown assessment by qRT-PCR; format: cell-based, Schistosoma mansoni; details: 48 h, vs siLuc
Method: (§3) Following the perfusion of 7 wks infected mice, adult worms were recovered and RNAi performed as previously described. Briefly, smp_000700 and non-specific luciferase siRNA duplexes were purchased from Sigma (siSmp_000700 = sense: GGUAAUCGGUCAUGUGUAU[dT][dT] and anti-sense: AUACACAUGACCGAUUACC[dT][dT]; siLuc = sense CUUACGCUGAGUACUUCGA[dT][dT] and anti-sense UCGAAGUACUCAGCGUAAG[dT][dT]) and used at a final concentration of 50 ng/μl. Mixed sex adult worm pairs (for knockdown assessment by quantitative reverse transcription PCR, qRT-PCR) were cultured at 37°C in DMEM supplemented with 10% FCS, 2 mM L-glutamine, […] HEPES (Sigma-Aldrich, UK), 100 Units/ml penicillin and 100 μg/ml streptomycin in an atmosphere of 5% CO2 with a 70% media exchange performed every 48 h. The experiment was replicated three times (21 worm pairs/replicate). Quantitative reverse transcription PCR (qRT-PCR) of smp_000700 abundance was performed at 48 h and adult worm motility as well as egg counts were quantified at 168 h. Levels of H3K36me2 detected in schistosome histone extracts were assessed at 72 h.
Following RNAi with siSmp_000700 and siLuc, mixed-sex adult worms were incubated for a total of 48 h before processing them for RNA isolation. […]

H3K36me2 = H3K36me2 detection in adult worm histone extracts; format: cell-based, Schistosoma mansoni; details: siRNA 50 ng/μl, adult worms, vs siLuc
Method: LLY-507 (6.25 μM), BAY-598 (25 μM) or siSmp_000700 treated male and female worms (alongside DMSO or siLuc controls; 21 individuals per condition) were homogenized with a TissueLyser (Qiagen) and total histones extracted using the EpiQuik^TM Total Histone Extraction Kit (Epigentek). Levels of H3K36me2 in adult histone extracts were measured using the EpiQuik^TM Global Di-Methyl Histone H3-K36 Quantification Kit (Fluorimetric, Epigentek). Technical duplicates of three biological replicates of each treatment were analysed according to the manufacturer’s instructions. Fluorescent readings (530EX/590EM nm) were obtained using a POLARstar Omega (BMG Labtech, UK) microtiter plate reader. Fluorescent values of the samples were corrected by subtracting the fluorescent readings of the blank (buffer only, provided in the kit). The mean of the adjusted control values (DMSO for LLY-507/BAY-598 treated worms and siLuc for siSmp_000700 treated worms) was set at 100% H3K36me2 and the standard deviation (SD) was calculated from the normalised values.

adult schistosome pairs = test: RNAi of adult schistosome pairs: motility and egg counts; format: cell-based, Schistosoma mansoni; details: 168 h (7 days post-treatment), vs siLuc
Method: as §3

| Compound | number of vitellocytes per egg (packaging into IVLEs) [1] | overall egg volume [1] | adult worm motility and IVLE production ([2]; 3.13 μM and 6.25 μM, 72 h, vs DMSO) | SELECTIVITY INDEX Adult Females ([2]; CC50 HepG2 / adult female EC50) | SELECTIVITY INDEX Adult Males ([2]; CC50 HepG2 / adult male EC50) | EC50 ([2]; 72 h, adult females, read-out: ADULT EC50 (95% Confidence Intervals) Females) | EC50 ([2]; 72 h, adult males, read-out: ADULT EC50 (95% Confidence Intervals) Males) | CC50 (HepG2 cells) | CC50 at 20 h [3] | schistosomula phenotype by microscopic assessment (S. mansoni schistosomula; 10 μM, 72 h) | SELECTIVITY INDEX Schistosomula Motility (S. mansoni schistosomula; CC50 HepG2 / schistosomula motility EC50) | SELECTIVITY INDEX Schistosomula Phenotype (S. mansoni schistosomula; CC50 HepG2 / schistosomula phenotype EC50) | EC50 (S. mansoni schistosomula; 72 h, read-out: SCHISTOSOMULA EC50 Motility) | EC50 (S. mansoni schistosomula; 72 h, read-out: SCHISTOSOMULA EC50 Phenotype) | cell permeability [4] | reduction of smp_000700 mRNA abundance (KD) (smp_000700) | reduction in H3K36me2 (H3K36me2) | adult worm motility after RNAi (adult schistosome pairs) | egg production after RNAi (adult schistosome pairs) |
| --- | --- | --- | --- | --- | --- | --- | --- | --- | --- | --- | --- | --- | --- | --- | --- | --- | --- | --- | --- |
| CCOC(=O)CCNc1cc(N2CCc3ccccc3CC2)nc(-c2ccccn2)n1 [GSK-J4, ethyl 3-[[2-pyridin-2-yl-6-(1,2,4,5-tetrahydro-3-benzazepin-3-yl)pyrimidin-4-yl]amino]propanoate] | significantly inhibited the packaging | no difference | led to adult worm motility and IVLE deficiencies | 8.78 | 25.49 | 11.4 µM | 3.92 µM | > 100 µM | > 50 µM | phenotypes comparable to auranofin | 16.55 | 18.62 | 6.04 µM | 5.37 µM | cell-permeable |  |  |  |  |
| siSmp_000700: siRNA duplex directed against smp_000700; sense GGUAAUCGGUCAUGUGUAU[dT][dT] (antisense AUACACAUGACCGAUUACC; 3' dTdT overhangs, further chemistry not given here) |  |  |  |  |  |  |  |  |  |  |  |  |  |  |  | 66% | 15% | significant reduction in adult worm motility | egg production defects |
